Measured values reported in patent publication US9125930B2, “EGFR aptamer inhibitor for use in therapy and diagnosis” (CONSIGLIO NAZIONALE DELLE RICERCHE, priority 2010, dated 2015).

What was measured:
A549 tumors = experiment: Tumor growth in A549 mouse xenograft; format: in vivo; conditions: day 16, with respect to CL4 scrambled control, 200 pmols intratumoral three times a week
Experimental: The volume injections are small enough to preclude the compounds being forced inside the cells due to a nonspecific high-pressure injection. Tumors were measured every 3 days with calipers in three dimensions. The following formula was used to calculate tumor volume: VT=(W×L×H)×0.5236 (W, the shortest dimension; L, the longest dimension; H, the intermediate dimension). The growth curves are plotted as the means tumor volume±s.e.m. Statistical analysis of tumor size data was conducted using a one-way ANOVA. A P-value of 0.05 or less was considered to indicate a significant difference. […]
Athymic CD-1 nude mice (nu/nu) were housed in a highly controlled microbiological environment, thus to guarantee specific pathogen free conditions. Mice were injected subcutaneously with 3×10^6 (in 100 μl) in vitro propagated A549. Sixteen non-necrotic tumors of about 0.5 cm in diameter were randomly divided into two groups of eight mice as follows: group 1, CL4 scrambled-treated; group 2, CL4 42-81-treated. Aptamers (200 pmols/injection) were injected intra-tumorally in 100-1 μl volumes three times a week for 16 days. Tumors were measured every 2 days.

breast SKBR3 = experiment: Binding on SKBR3 cells; set-up: species or system human; conditions: high level of EGFR; 100 nM
Experimental: (§1) Binding experiments were performed with 5′-[^32P]-labeled RNA. For labeling 2′-F-Py RNAs were 5′-end dephosphorylated using bacterial alcaline phosphatase (Invitrogen, Carlsbad, Calif.) before [^32P]-5′-end-labeled using T4 kinase (Invitrogen) and γ-[^32P]-ATP (6×10^3 Ci/mmol, GE Healthcare Bio-Sciences, Uppsala, Sweden) according to the supplier's instructions.
(§2) For binding experiments on cells, 3.5×10^4 cells were plated in 24-well plates in triplicate and were incubated with CL4 42-81 aptamer the scrambled sequence used as a negative control at 100 nM concentration in 200 μl of DMEM serum free for 20 min at RT in the presence of 100 μg/ml polyinosine as a nonspecific competitor (Sigma, St. Louis, Mo.). After five washings with 500 μl DMEM, bound sequences were recovered in 300 μl of SDS 1%, and the amount of radioactivity recovered was counted.

ERK = experiment: Immunoblot of EGF-induced ERK phosphorylation; format: cell-based, human; conditions: data not shown
Experimental: To assess the effects of aptamers on EGFR activity, A549 cells (1.5×10^5 cells per 3.5-cm plate) were serum-starved over night, pretreated with 200 nM CL4 42-81 aptamer or the scrambled aptamer used as a negative control for 3 h and then stimulated for 30 min with 50 ng/ml EGF (R&D Systems, Minneapolis, Minn.) either alone or in presence of each aptamer. The aptamers were subjected to a short denaturation-renaturation step (85° C. for 5 min, snap-cooled on ice for 2 min, and allowed to warm up to 37° C.) before each treatment. To prepare cell extracts, cells were washed twice in ice-cold PBS, and lysed in buffer A (50 mM Tris-HCl pH 8.0 buffer containing 150 mM NaCl, 1% Nonidet P-40, 2 mg/ml aprotinin, 1 mg/ml pepstatin, 2 mg/ml leupeptin, 1 mM Na3VO4). Protein concentration was determined by the Bradford assay using bovine serum albumin as the standard. The cell lysates were subjected to SDS-PAGE. […]

A549 cells = experiment: Binding of [32P]-labeled aptamer on A549 cells; set-up: species or system human
Experimental: as §1, §2

caspase-8 = experiment: Caspase-8 activity assay in A549 cells; format: cell-based, human; conditions: A549, 200 nM, 6 hs
Experimental: A549 cells were treated with 200 nM CL4 42-81 or the scrambled aptamer for 6 hs. To determine caspase activity cell lysates (50 μg) were incubated at 37° C. for 1 h with 50 μM of a specific fluorometric substrate (Ac-DEVD-AFC for caspase-3, Ac-IETD-AFC for caspase-8, both from Alexis Bichemicals, San Diego, Calif.). Cleavage of the fluorometric substrate were determined using a Fluorometer, with excitation at 400 nm and emission at 505 nm wavelengths.

[1] = test system: NIH3T3 cells stably transfected with human EGFR (NIH/EGFR); experiment: Binding on NIH/EGFR cells; set-up: species or system mouse; conditions: [32P]-labeled aptamer at 100 nM; relative to scrambled aptamer
Experimental: Human NSCLC A549, epidermoid carcinoma A431, glioma U87MG and T98G, breast SKBr3, MCF7 and T47D and mouse fibroblast NIH3T3 (all from American Type Culture Collection, Manassas, Va.) cells were grown in Dulbecco's modified Eagle medium (DMEM) supplemented with 10% fetal bovine serum (FBS) and 2 mM L-glutamine (Invitrogen, Carlsbad, Calif.). NIH3T3 cells stably transfected with human EGFR (NIH/EGFR) were grown in DMEM with 10% FBS and 2 mM L-glutamine supplemented with 50 μg/ml Gentamycin.
as §1, §2

breast MCF7 = experiment: Binding on MCF7 cells; set-up: species or system human; conditions: no or very low expression of EGFR; 100 nM
Experimental: as §1, §2

CL4 42-81: 2′-fluoropyrimidine nuclease-resistant RNA aptamer of 39 nt: 5′ GCCUUAGUAACGUGCUUUGAUGUCGAUUCGACAGGAGGC 3′ (SEQ ID No. 1) (2'-fluoro at CU, RNA at AG, backbone not given here)
inhibition of tumor growth (tumor volume) (A549 tumors): 57% | binding on SKBR3 cells (breast SKBR3): binds | EGF-induced phosphorylation of ERK (ERK): decreases | binding on A549 cells (A549 cells; EGFR-positive, 100 nM): binds | Kd (A549 cells; binding to A549 target cells): 38 nM | activation of caspase-8 (caspase-8): strongly induce activation | binding on NIH/EGFR cells [1]: binds | binding on MCF7 cells (breast MCF7): does not bind
